Measured values: article PMC6680226, “Peptoid Efficacy against Polymicrobial Biofilms Determined by Using Propidium Monoazide‐Modified Quantitative PCR” (Chembiochem, 2016)
“Also recorded” adds a separate entry of the source. Like-named read-outs stand apart in the source and are kept apart here.

What was measured:
[1] = test system: trypsin; type: in vitro ADME; settings: trypsin 0.5 μg/mL, Tris·HCl 50 mM pH 7.8 with CaCl2 9 mM, 24 h; MALDI-TOF MS read-out
Description: Proteolytic stability studies: Peptoid stability was confirmed by comparing the tryptic digestion of 7 with LL‐37 (Innovagen AB, Lund, Sweden). Stock solutions (5 mg mL^−1) of 7 and LL‐37 were prepared, and samples (7.5 μL) were incubated with trypsin (0.5 μg mL^−1) and incubation buffer (37.5 μL, Tris⋅HCl (50 mM, pH 7.8) containing CaCl2 (9 mM)). After 0 h (for mass spectrometric verification) or 24 h, the reaction mixture was acidified by addition of TFA (10 %, 50 μL) to denature the enzyme and stop enzyme activity. The samples were air‐dried and then reconstituted in acetonitrile/water/TFA (50 μL, 40:59.5:0.5, v/v/v), and an aliquot (1 μL) was placed onto a stainless steel MALDI target. Samples were covered immediately with matrix (1 μL, α‐cyano‐4‐hydroxycinnamic acid (53 mM in acetonitrile/water/TFA, 70:29.98:0.02, v/v/v)). MALDI‐TOF MS was performed on a linear TOF Voyager DE‐mass spectrometer (PerSeptive Biosystems, Farmingham, MA, USA). The samples were analysed in positive detection mode, and internal mass calibration with known standards established the mass accuracy to ±0.1 %. Fifty laser scans were averaged for each sample, and variable laser intensity was used to ensure the most representative mass spectra for the wells.
4. Proteolytic Stability Study […]

[2] = test system: HaCaT; assay: alamarBlue cytotoxicity assay, HaCaT keratinocytes; settings: for ED50 HaCaT: alamarBlue viability, 2-100 μM from DMSO stock, 1 h with compound then 24 h incubation at 37 °C, fluorescence, triplicate on a minimum of two occasions; for Toxicity to HaCaT cells (in words): alamarBlue, up to 100 μM
Description: (§7) Peptoid cytotoxicity studies: All 18 peptoids were tested for cytotoxicity against HepG2 epithelial (Sigma–Aldrich) and HaCaT keratinocyte (ThermoFisher) cell lines, Cytotoxicity analyses were performed in Costar 96‐well plates (Thermo Fisher Scientific) with alamarBlue (Invitrogen/Thermo Fisher Scientific) for cell viability detection as described by the manufacturer. HepG2 and HaCaT cells were grown at 37 °C under CO2 (5 %) in DMEM (high glucose) supplemented with heat‐inactivated foetal bovine sera (FBS, 10 %; Biosera, Uckfield, UK) and penicillin/streptomycin (1 %). Cells were counted in a Neubauer Improved Haemocytometer. HepG2 or HaCaT cells were seeded 24 h prior to treatment in 96‐well plates (2×10^4 cells per well in 100 μL). After 24 h, cells were incubated in triplicate with a dilution series of compound (2–100 μM from 5 mM stock solutions in DMSO) in the medium (50 μL) for 1 h. An aliquot (40 μL) was removed from each well, before the addition of medium (90 μL) followed by incubation for 24 h (37 °C, 5 % CO2). Then, alamarBlue (10 μL) was added to each well before incubation (2 h for Hep G2, 1 h for HaCaT) prior to assessing cell viability in a fluorescent plate reader (Biotek, Winooski, VT; λ ex=560 nm, λ em=600 nm). All data were measured in triplicate on a minimum of two occasions.
(§8) Toxicity was determined using an alamarBlue® cytotoxicity assay.

[3] = test system: HepG2; assay: alamarBlue cytotoxicity assay, HepG2 cells; settings: for ED50 HepG2: alamarBlue viability, 2-100 μM from DMSO stock, 1 h with compound then 24 h incubation at 37 °C, fluorescence, triplicate on a minimum of two occasions; for Toxicity to HepG2 cells (in words): alamarBlue, up to 100 μM
[4] = test system: E. coli monospecies biofilm; assay: PMA-qPCR viable cell number, E. coli monospecies biofilm; type: cell-based, Escherichia coli; settings: peptoid 100 μM, 24 h; n=3
Description: (§1) Preparation and treatment of single‐species biofilms: Overnight cultures of C. albicans were washed and resuspended (1.0×10^6 cells per mL) in RPMI‐1640 (Sigma–Aldrich). Overnight cultures of S. aureus or E. coli were washed and resuspended (5.0×10^6 cells per mL) in BHI broth. Samples (100 μL) were added to microtitre plate wells (Thermo Fisher Scientific), and a biofilm was allowed to form for 4 h. Wells were washed with PBS (3×200 μL) to facilitate removal of planktonic cells, and the biofilms were then treated with 1–18 (100 μM in the appropriate medium). Plates were incubated for a further 24 h to allow biofilm maturation. After removal of planktonic cells by washing, biofilms were quantified by the crystal violet assay or by PMA‐qPCR.
(§2) Biofilm quantification by PMA‐modified qPCR: In order to determine the bactericidal and fungicidal activity of peptoids against single‐species and polymicrobial biofilms, the biofilms were detached from the microtitre plate wells prior to quantification. The wells were washed as above, then BHI broth (100 μL) was added and the plate was sealed. Biofilm detachment was achieved by sonication for 5 min in an ultrasonic bath (Dawe, Hayes, Middlesex, UK). The remaining cells were then collected in BHI (80 μL). […]
(§3) Generation of standard curves for PMA‐qPCR: For quantification of C. albicans, S. aureus and E. coli in single‐species and polymicrobial biofilms, DNA standards were prepared by extraction of DNA from planktonic organisms with the microLYSIS‐Plus kit and purification with a DNeasy kit (Qiagen). DNA standards (10^1–10^6 cells) were used in PMA‐qPCR assays to generate standard curves from which the numbers of living organisms within the biofilms could be determined.

[5] = test system: C. albicans monospecies biofilm; assay: PMA-qPCR viable cell number, C. albicans monospecies biofilm; type: cell-based, Candida albicans; settings: peptoid 100 μM, 24 h; n=3
Description: as §1, §2, §3

[6] = test system: E. coli (ATCC 29522) biofilm; assay: Crystal violet assay, E. coli monospecies biofilm; type: cell-based, Escherichia coli; settings: peptoid 100 μM, 24 h treatment of 4 h biofilm; n=3
Description: (§4) Microorganism strains and growth conditions: C. albicans (NCTC 3179) was subcultured aerobically on Sabouraud agar plates, prepared by using Sabouraud dextrose powder and agar (Oxoid, ThermoFisher) and propagated in yeast peptone dextrose broth. E. coli (ATCC 29522) and S. aureus (NCTC 6571) were grown on blood agar plates (Fanin, Dublin, Ireland) and propagated in brain heart infusion (BHI) broth (Oxoid, ThermoFisher).
as §1
(§5) Biofilm quantification by crystal violet assay: Washed biofilms were fixed with methanol (100 μL) for 10 min. Following removal of methanol, the wells were air dried and stained with crystal violet solution (Clin‐Tech, Guildford, UK) for 20 min at room temperature. Excess stain was removed by washing, then the plate was air‐dried and bound crystal violet was re‐solubilised in acetic acid (33 %, 160 μL) prior to reading at 570 nm in a GENios microtitre plate reader (Tecan, Zürich, Switzerland).

[7] = test system: S. aureus in polymicrobial biofilm with C. albicans; assay: PMA-qPCR, S. aureus within C. albicans-S. aureus polymicrobial biofilm; type: cell-based, Staphylococcus aureus; settings: 24 h; for Reduction of cell numbers of S. aureus in mixed-species biofilm: peptoid 10 μM, PMA-qPCR
Description: (§6) Preparation and treatment of polymicrobial biofilms: Overnight cultures of C. albicans were prepared in microtitre plates as above, and allowed to adhere for 4 h to facilitate initial biofilm formation. Planktonic C. albicans cells were removed as above before the addition of S. aureus or E. coli (100 μL, 5.0×10^6 cells per mL). Bacteria were allowed to adhere to the C. albicans biofilms for 4 h to facilitate polymicrobial biofilm formation. Following a washing step, the biofilms were then treated with peptoid (10–100 μM), and incubated for a further 24 h to allow biofilm maturation. Wells were washed as above, and the polymicrobial biofilms were quantified by PMA‐modified qPCR.
Biofilm quantification by PMA‐modified qPCR: In order to determine the bactericidal and fungicidal activity of peptoids against single‐species and polymicrobial biofilms, the biofilms were detached from the microtitre plate wells prior to quantification. The wells were washed as above, then BHI broth (100 μL) was added and the plate was sealed. Biofilm detachment was achieved by sonication for 5 min in an ultrasonic bath (Dawe, Hayes, Middlesex, UK). The remaining cells were then collected in BHI (80 μL). PMA (20 μL, 2 mM in broth;47 Biotium, Fremont, CA) was added to the biofilm suspensions […] and incubated (37 °C, 5 min) prior to photoactivation with a broad‐spectrum LED flood light (60 LED, 0.1 W) placed 15 cm from the tubes (mixed by inversion during the 20 min photoactivation step).48 DNA was extracted by using a microLYSIS‐Plus kit (Microzone, Haywards Heath, UK), and qPCR was performed in a Mx3005P qPCR System (Agilent Technologies).49, 50, 51 See the Tables in the Supporting Information.
as §3

[8] = test system: C. albicans (NCTC 3179) biofilm; assay: Crystal violet assay, C. albicans monospecies biofilm; type: cell-based, Candida albicans; settings: peptoid 100 μM, 24 h treatment of 4 h biofilm; n=3
Description: as §4, §1, §5

[9] = test system: S. aureus (NCTC 6571) biofilm; assay: Crystal violet assay, S. aureus monospecies biofilm; type: cell-based, Staphylococcus aureus; settings: peptoid 100 μM, 24 h treatment of 4 h biofilm; n=3
Description: as §4, §1, §5

[10] = test system: HepG2
Description: as §7, §8

[11] = test system: HaCaT
Description: as §7, §8

[12] = test system: C. albicans in polymicrobial biofilm with S. aureus; assay: PMA-qPCR, C. albicans within C. albicans-S. aureus polymicrobial biofilm; type: cell-based, Candida albicans; settings: peptoid 100 μM, 24 h; n=3
Description: as §6, §2, §3

Molecule | ED50 HaCaT [2] [µM] | ED50 HepG2 [3] [µM] | other results
CC[C@H](C)[C@H](NC(=O)[C@H](CCCCN)NC(=O)[C@H](CCC(=O)O)NC(=O)[C@H](CCCCN)NC(=O)[C@H](CO)NC(=O)[C@H](CCCCN)NC(=O)[C@H](CCCNC(=N)N)NC(=O)[C@H](Cc1ccccc1)NC(=O)[C@H](Cc1ccccc1)NC(=O)[C@H](CC(=O)O)NC(=O)CNC(=O)[C@H](CC(C)C)NC(=O)[C@@H](N)CC(C)C)C(=O)NCC(=O)N[C@@H](CCCCN)C(=O)N[C@@H](CCC(=O)O)C(=O)N[C@@H](Cc1ccccc1)C(=O)N[C@@H](CCCCN)C(=O)N[C@@H](CCCNC(=N)N)C(=O)N[C@H](C(=O)N[C@H](C(=O)N[C@@H](CCC(N)=O)C(=O)N[C@@H](CCCNC(=N)N)C(=O)N[C@H](C(=O)N[C@@H](CCCCN)C(=O)N[C@@H](CC(=O)O)C(=O)N[C@@H](Cc1ccccc1)C(=O)N[C@@H](CC(C)C)C(=O)N[C@@H](CCCNC(=N)N)C(=O)N[C@@H](CC(N)=O)C(=O)N[C@@H](CC(C)C)C(=O)N[C@H](C(=O)N1CCC[C@H]1C(=O)N[C@@H](CCCNC(=N)N)C(=O)N[C@H](C(=O)N[C@@H](CCC(=O)O)C(=O)N[C@@H](CO)C(=O)O)[C@@H](C)O)C(C)C)[C@@H](C)CC)C(C)C)[C@@H](C)CC [LL‐37] | – | – | Degradation after treatment with trypsin [1]: degraded to peptide fragments
(NLysNpheNphe)2 [Peptoid 3] | > 100 | > 100 | –
(NLysNpheNphe)3 [Peptoid 2] | > 100 | > 100 | –
(NLysNpheNphe)4 [Peptoid 1] | 36 ± 1 | > 100 | –
(NLysNspeNspe)2 [Peptoid 6] | > 100 | > 100 | –
(NLysNspeNspe)3 [Peptoid 5] | > 100 | > 100 | Reduction in viable cell number, E. coli monospecies biofilm (PMA-qPCR) [4]: significant reduction in cell number; Reduction in viable cell number, C. albicans monospecies biofilm (PMA-qPCR) [5]: significant reduction in cell number; also recorded: the greatest reduction in cell number; Efficacy against E. coli monospecies biofilm (biomass, crystal violet) [6]: amongst the most efficacious; Reduction of cell numbers of S. aureus in mixed-species biofilm [7]: ~100%; Reduction in S. aureus cell number in mixed biofilm with C. albicans (PMA-qPCR) ([7]; peptoid 100 μM, n=3): better able to reduce the cell count; Efficacy against C. albicans monospecies biofilm (biomass, crystal violet) [8]: amongst the most efficacious; Toxicity to HaCaT cells (in words) [2]: negligible toxicity; Efficacy against S. aureus monospecies biofilm (biomass, crystal violet) [9]: amongst the most efficacious; Toxicity to HepG2 cells (in words) [3]: negligible toxicity
(NLysNspeNspe)4 [Peptoid 4] | – | – | ED50 HepG2 [10]: 29 ± 1 µM; ED50 HaCaT [11]: 20 ± 1 µM
(NaeNpheNphe)2 [Peptoid 9] | > 100 | > 100 | –
(NaeNpheNphe)3 [Peptoid 8] | > 100 | > 100 | –
(NaeNpheNphe)4 [Peptoid 7] | > 100 | > 100 | Reduction in viable cell number, E. coli monospecies biofilm (PMA-qPCR) [4]: significant reduction in cell number; Reduction in viable cell number, C. albicans monospecies biofilm (PMA-qPCR) [5]: significant reduction in cell number; Efficacy against E. coli monospecies biofilm (biomass, crystal violet) [6]: amongst the most efficacious; Reduction of cell numbers of S. aureus in mixed-species biofilm [7]: ~100%; Efficacy against C. albicans monospecies biofilm (biomass, crystal violet) [8]: amongst the most efficacious; Toxicity to HaCaT cells (in words) [2]: negligible toxicity; Efficacy against S. aureus monospecies biofilm (biomass, crystal violet) [9]: amongst the most efficacious; Toxicity to HepG2 cells (in words) [3]: negligible toxicity; Reduction in C. albicans cell number in mixed biofilm with S. aureus (PMA-qPCR) [12]: the greatest reduction
(NaeNspeNspe)2 [Peptoid 12] | > 100 | > 100 | –
(NaeNspeNspe)3 [Peptoid 11] | > 100 | > 100 | –
(NaeNspeNspe)4 [Peptoid 10] | 26 ± 2 | 41 ± 2 | –
(NahNpheNphe)2 [Peptoid 15] | > 100 | > 100 | –
(NahNpheNphe)3 [Peptoid 14] | > 100 | > 100 | –
(NahNpheNphe)4 [Peptoid 13] | > 100 | > 100 | –
(NahNspeNspe)2 [Peptoid 18] | > 100 | > 100 | –
(NahNspeNspe)4 [Peptoid 16] | 23 ± 1 | 41 ± 1 | –
